Measured values reported in patent US20170260183A1, “BICYCLIC COMPOUNDS AS PEST CONTROL AGENTS” (BAYER CROPSCIENCE AKTIENGESELLSCHAFT, priority 2014, published 2017).
Read-outs that look alike come from different tables or passages of the source.

Experiments:
[1] = logP determination by HPLC on reversed-phase columns (OECD Guideline 117); assay type: physicochemical; details: reversed-phase (C18) HPLC column
Experimental: The logP values were determined in accordance with OECD Guideline 117 (EC Directive 92/69/EEC) by HPLC (high-performance liquid chromatography) using reversed-phase (RP) columns (C18), by the following methods: [a] The LC-MS determination in the acidic range is carried out at pH 2.7 with 0.1% aqueous formic acid and acetonitrile (contains 0.1% formic acid) as eluents; linear gradient from 10% acetonitrile to 95% acetonitrile. [b] LC-MS determination in the neutral range is effected at pH 7.8 with 0.001 molar aqueous ammonium hydrogencarbonate solution and acetonitrile as eluents; linear gradient from 10% acetonitrile to 95% acetonitrile. Calibration is effected using unbranched alkan-2-ones (having 3 to 16 carbon atoms) with known logP values (logP values determined on the basis of the retention times by linear interpolation between two successive alkanone s).

Myzus persicae = Myzus persicae - spray test; assay type: in vivo; details: foliar, 144 h, application rate 500 g/ha, after 6 days, sprayed Chinese cabbage leaf discs, 100% = all aphids killed, read-out: efficacy in %
Experimental: Myzus persicae—Spray Test • Solvent: 78 parts by weight of acetone • 1.5 parts by weight of dimethylformamide • Emulsifier: alkylaryl polyglycol ether […] To produce further test concentrations, the formulation is diluted with emulsifier-containing water. Discs of Chinese cabbage leaves (Brassica pekinensis) infested by all stages of the green peach aphid (Myzus persicae) are sprayed with an active ingredient formulation of the desired concentration. After 6 days, the efficacy in % is determined. 100% means that all the aphids have been killed and 0% means that none of the aphids have been killed.

Aphis gossypii = Aphis gossypii - spray test; assay type: in vivo; details: application rate 4 ppm; after 6 days; sprayed cotton plants; 100% = all aphids killed
Experimental: Aphis gossypii—Spray Test • Solvent: 7 parts by weight of dimethylformamide • Emulsifier: alkylaryl polyglycol ether
To produce a suitable active ingredient formulation, 1 part by weight of active ingredient is dissolved with the specified parts by weight of solvent and made up with water containing an emulsifier concentration of 1000 ppm until the desired concentration is attained. To produce further test concentrations, the formulation is diluted with emulsifier-containing water. If the addition of ammonium salts or/and penetrants is required, these are each added in a concentration of 1000 ppm to the formulation solution.
Cotton plants (Gossypium hirsutum) heavily infested by the cotton aphid (Aphis gossypii) are sprayed with an active ingredient formulation of the desired concentration.
After 6 days, the kill in % is determined. 100% means that all the aphids have been killed and 0% means that none of the aphids have been killed.

[2] = acidic range, pH 2.7, 0.1% aqueous formic acid and acetonitrile, read-out: logP[a]
[3] = neutral range, pH 7.8, 0.001 molar aqueous ammonium hydrogencarbonate and acetonitrile, read-out: logP[b]

chromatographic logP [1, 2] | chromatographic logP [1, 3] | Compound | pest or weed control at 500 g/ha (Myzus persicae) | efficacy (kill in %) (Aphis gossypii)
3.14 | 3.1 | Cc1ccc(-c2cnc3nn(-c4cccnc4)cc3c2)cc1SCC(F)(F)F [Example 4, 5-[4-methyl-3-(2,2,2-trifluoroethylsulphanyl)phenyl]-2-(3-pyridyl)pyrazolo[3,4-b]pyridine] | 100% | –
1.16 | 1.2 | CSCCC(=O)N(C)c1cnc2nn(-c3cccnc3)cc2c1 [Example 10, N-[2-(3-pyridyl)pyrazolo[3,4-b]pyridin-5-yl]-N-methyl-3-methylsulphanylpropanamide] | 90% | –
– | 0.54 | CC(=O)Nc1cnc2nn(-c3cccnc3)cc2c1 [Example 1, 5-N-Acetylamino-2-(3-pyridyl)-pyrazolo[3,4-b]pyridine] | – | 95%
1.22 | 1.22 | CC(F)(F)CC(=O)Nc1cnc2nn(-c3cccnc3)cc2c1 [Example 7, 3,3-DIFLUORO-N-[2-(3-PYRIDYL)PYRAZOLO[3,4-B]PYRIDIN-5-YL]BUTANAMIDE] | 90% | –
1.15 | 1.21 | CSCCC(=O)Nc1cnc2nn(-c3cccnc3)cc2c1 [Example 6, 3-methylsulphanyl-N-[2-(3-pyridyl)pyrazolo [3,4-b]pyridin-5-yl]propanamide] | 100% | –
2.14 | 2.11 | Cc1cc(F)c(-c2cnc3nn(-c4cccnc4)cc3c2)cc1[S+]([O-])CC(F)(F)F (centres unmarked) [Example 3, 5-[2-fluoro-4-methyl-5-(2,2,2-trifluoroethylsulphinyl)phenyl]-2-(3-pyridyl)pyrazolo [3,4-b]pyridine] | 90% | –
3.44 | 3.22 | Cc1cc(F)c(-c2cnc3nn(-c4cccnc4)cc3c2)cc1SCC(F)(F)F [Example 2, 5-[2-Fluoro-4-methyl-5-(2,2,2-trifluoroethylsulphanyl)phenyl]-2-(3-pyridyl)pyrazolo[3,4-b]pyridine] | 90% | –
1 | 1.15 | Cn1cc(-c2cnc3nn(-c4cccnc4)cc3c2)cn1 [Example 8, 5-(1-methylpyrazol-4-yl)-2-(3-pyridyl)pyrazolo[3,4-b]pyridine] | 90% | –
2.07 | 2.03 | Cc1ccc(-c2cnc3nn(-c4cccnc4)cc3c2)cc1[S+]([O-])CC(F)(F)F (centres unmarked) [Example 5, 5-[4-METHYL-3-(2,2,2-TRIFLUOROETHYLSULPHINYL)PHENYL]-2-(3-PYRIDYL)PYRAZOLO [3,4-B]PYRIDINE] | 100% | –
